Assays:
Format in all cases: in vivo
[1] = system: canarygrass (Phalaris minor); assay: Test B postemergence plant response; details: for Plant response rating, Canarygrass: Postemergence
Method in brief: (§1)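 Following treatment of plants 2 to 18 cm high after emergence, pots were held under glass for 13 to 15 days; efficacy was then graded visually, 100 denoting complete control and a dash no test result.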

[2] = system: chickweed (Stellaria media); assay: Test B postemergence plant response; details: for Plant response rating, Chickweed: Postemergence
Method in brief: as §1

[3] = system: Italian ryegrass (Lolium multiflorum); assay: Test C pre-/postemergence plant response; details: Postemergence, scale 0 to 100, 0 no effect, 100 complete control
Method in brief: (§2)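 Scores (0 = no effect, 100 = complete control) are visual assessments made against control plants 15–25 days post-treatment in a controlled environment. Applications were preemergence and postemergence, with postemergence plants between 1- and 4-leaf stage.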

[4] = system: annual bluegrass (Poa annua); assay: Test C pre-/postemergence plant response; details: Postemergence, scale 0 to 100, 0 no effect, 100 complete control
Method in brief: as §2

[5] = system: blackgrass (Alopecurus myosuroides); assay: Test C pre-/postemergence plant response; details: Postemergence, scale 0 to 100, 0 no effect, 100 complete control
Method in brief: as §2

[6] = system: canarygrass (Phalaris minor); assay: Test C pre-/postemergence plant response; details: Postemergence, scale 0 to 100, 0 no effect, 100 complete control
Method in brief: as §2

[7] = system: downy bromegrass (Bromus tectorum); assay: Test C pre-/postemergence plant response; details: Postemergence, scale 0 to 100, 0 no effect, 100 complete control
Method in brief: as §2

[8] = system: green foxtail (Setaria viridis); assay: Test C pre-/postemergence plant response; details: Postemergence, scale 0 to 100, 0 no effect, 100 complete control
Method in brief: as §2

[9] = system: pigweed (Amaranthus retroflexus); assay: Test C pre-/postemergence plant response; details: Postemergence, scale 0 to 100, 0 no effect, 100 complete control
Method in brief: as §2

[10] = system: spring barley (Hordeum vulgare); assay: Test C pre-/postemergence plant response; details: Postemergence, scale 0 to 100, 0 no effect, 100 complete control
Method in brief: as §2

[11] = system: spring wheat (Triticum aestivum); assay: Test C pre-/postemergence plant response; details: Postemergence, scale 0 to 100, 0 no effect, 100 complete control
Method in brief: as §2

[12] = system: wild mustard (Sinapis arvensis); assay: Test C pre-/postemergence plant response; details: Postemergence, scale 0 to 100, 0 no effect, 100 complete control
Method in brief: as §2

wild oat (Avena fatua) = assay: Test C pre-/postemergence plant response; details: Postemergence, scale 0 to 100, 0 no effect, 100 complete control
Method in brief: as §2

[13] = system: windgrass (Apera spica-venti); assay: Test C pre-/postemergence plant response; details: Postemergence, scale 0 to 100, 0 no effect, 100 complete control
Method in brief: as §2

[14] = system: winter barley (Hordeum vulgare); assay: Test C pre-/postemergence plant response; details: Postemergence, scale 0 to 100, 0 no effect, 100 complete control
Method in brief: as §2

[15] = system: winter wheat (Triticum aestivum); assay: Test C pre-/postemergence plant response; details: Postemergence, scale 0 to 100, 0 no effect, 100 complete control
Method in brief: as §2

[16] = 8 g ai/ha, postemergence, 0-100 scale
[17] = 31 g ai/ha, scale 0 to 100, 0 no effect, 100 complete control

## CCc1cc(-c2ccc(Cl)c(Cl)c2)nn1-c1c(O)cnn(C)c1=O [Compound 20]
[1]; [16]
  Canarygrass plant response rating: 5
[1]; 16 g ai/ha, scale 0 to 100
  Plant response rating, Canarygrass: 30
[1]; [17]
  Plant response rating, Canarygrass: 50
[2]; [16]
  Chickweed plant response rating: 0
[2]; 16 g ai/ha, scale 0 to 100
  Plant response rating, Chickweed: 0
[2]; [17]
  Plant response rating, Chickweed: 0
[2]; 62 g ai/ha, scale 0 to 100
  Plant response rating, Chickweed: 0
[3]; 8 g ai/ha
  Plant response rating, Ryegrass, Italian: 65
[3]; 16 g ai/ha
  Plant response rating, Ryegrass, Italian: 80
[3]; 31 g ai/ha
  Plant response rating, Ryegrass, Italian: 95
[3]; 62 g ai/ha
  Plant response rating, Ryegrass, Italian: 98
[4]; 8 g ai/ha
  Plant response rating, Bluegrass: 0
[4]; 16 g ai/ha
  Plant response rating, Bluegrass: 0
[4]; 31 g ai/ha
  Plant response rating, Bluegrass: 0
[4]; 62 g ai/ha
  Plant response rating, Bluegrass: 0
[5]; 8 g ai/ha
  Plant response rating, Blackgrass: 0
[5]; 16 g ai/ha
  Plant response rating, Blackgrass: 35
[5]; 31 g ai/ha
  Plant response rating, Blackgrass: 60
[5]; 62 g ai/ha
  Plant response rating, Blackgrass: 75
[6]; 8 g ai/ha
  Plant response rating, Canarygrass: 10
[6]; 16 g ai/ha
  Plant response rating, Canarygrass: 35
[6]; 31 g ai/ha
  Plant response rating, Canarygrass: 75
[6]; 62 g ai/ha
  Plant response rating, Canarygrass: 95
[7]; 8 g ai/ha
  Plant response rating, Bromegrass, Downy: 0
[7]; 16 g ai/ha
  Plant response rating, Bromegrass, Downy: 0
[7]; 31 g ai/ha
  Plant response rating, Bromegrass, Downy: 0
[7]; 62 g ai/ha
  Plant response rating, Bromegrass, Downy: 10
[8]; 8 g ai/ha
  Plant response rating, Foxtail, Green: 0
[8]; 16 g ai/ha
  Plant response rating, Foxtail, Green: 70
[8]; 31 g ai/ha
  Plant response rating, Foxtail, Green: 80
[8]; 62 g ai/ha
  Plant response rating, Foxtail, Green: 98
[9]; 8 g ai/ha
  Plant response rating, Pigweed: 0
[9]; 16 g ai/ha
  Plant response rating, Pigweed: 0
[9]; 31 g ai/ha
  Plant response rating, Pigweed: 0
[9]; 62 g ai/ha
  Plant response rating, Pigweed: 0
[10]; 8 g ai/ha
  Plant response rating, Barley, Spring: 0
[10]; 16 g ai/ha
  Plant response rating, Barley, Spring: 25
[10]; 31 g ai/ha
  Plant response rating, Barley, Spring: 25
[10]; 62 g ai/ha
  Plant response rating, Barley, Spring: 50
[11]; 8 g ai/ha
  Plant response rating, Wheat, Spring: 0
[11]; 16 g ai/ha
  Plant response rating, Wheat, Spring: 25
[11]; 31 g ai/ha
  Plant response rating, Wheat, Spring: 25
[11]; 62 g ai/ha
  Plant response rating, Wheat, Spring: 60
[12]; 8 g ai/ha
  Plant response rating, Mustard, Wild: 0
[12]; 16 g ai/ha
  Plant response rating, Mustard, Wild: 0
[12]; 31 g ai/ha
  Plant response rating, Mustard, Wild: 0
[12]; 62 g ai/ha
  Plant response rating, Mustard, Wild: 0
Wild oat (Avena fatua); 8 g ai/ha
  Plant response rating, Oat, Wild: 10
Wild oat (Avena fatua); 16 g ai/ha
  Plant response rating, Oat, Wild: 98
Wild oat (Avena fatua); 31 g ai/ha
  Plant response rating, Oat, Wild: 100
Wild oat (Avena fatua); 62 g ai/ha
  Plant response rating, Oat, Wild: 100
[13]; 8 g ai/ha
  Plant response rating, Windgrass: 0
[13]; 16 g ai/ha
  Plant response rating, Windgrass: 0
[13]; 31 g ai/ha
  Plant response rating, Windgrass: 50
[13]; 62 g ai/ha
  Plant response rating, Windgrass: 75
[14]; 8 g ai/ha
  Plant response rating, Barley, Winter: 0
[14]; 16 g ai/ha
  Plant response rating, Barley, Winter: 0
[14]; 31 g ai/ha
  Plant response rating, Barley, Winter: 20
[14]; 62 g ai/ha
  Plant response rating, Barley, Winter: 20
[15]; 8 g ai/ha
  Plant response rating, Wheat, Winter: 0
[15]; 16 g ai/ha
  Plant response rating, Wheat, Winter: 20
[15]; 31 g ai/ha
  Plant response rating, Wheat, Winter: 30
[15]; 62 g ai/ha
  Plant response rating, Wheat, Winter: 60

Reference: patent US20100267561A1, “HERBICIDAL PYRIDAZINONE DERIVATIVES” (priority 2007, published 2010)
